Literature values, collected in PMC9102399 (Molecules, 2022).
Values belong to the compound of their own block, whether it stands above or below them.

What was measured:
[1] = design: method as in earlier work; conditions: SD rats
[2] = beagle dogs
[3] = rats, oral; curcumin 500 mg/kg

t1/2 of oral CUR II [1]: about 5.5 h
SMILES: COc1cc(C=CC(=O)CC(=O)C=Cc2ccc(O)cc2)ccc1O [CUR II, 4-hydroxycinnamoyl-[4-hydroxy-3-methoxycinnamoyl] methane]

oral t1/2 of CUR [2]: about 0.85 h
SMILES: COc1cc(C=CC(=O)CC(=O)C=Cc2ccc(O)c(OC)c2)ccc1O [CUR, 1,7-bis [4-hydroxy-3-methoxy-phenyl]-hepta-1,6-diene-3,5-dione]

time of maximal plasma concentration [3]: 30 min
SMILES: COc1cc(/C=C/C(=O)CC(=O)/C=C/c2ccc(O)c(OC)c2)ccc1O [curcumin]
